Columns and labels:
[1] = biological target: Nav1.5 (SCN5A) (Homo sapiens, UniProt Q14524); assay: Selectivity interaction (Panel of kinases, GPCRs, ion channels and transporters (enzymatic assay)) EUB0000266bCl SCN5A
[2] = biological target: Adenosine receptor A1 (Homo sapiens, UniProt P30542); assay: Selectivity interaction (Adenosine 1 receptor binding assay, human recombinant) EUB0000877a ADORA1
[3] = biological target: DNA (cytosine-5)-methyltransferase 3B (Homo sapiens) (UniProt Q9UBC3); assay: Selectivity interaction (PWWP, WD40, and Tudor domain panel (DSLS measurements, literature)) EUB0000270b DNMT3B
[4] = biological target: T1, Mitogen-activated protein kinase kinase kinase 3 (Homo sapiens) (UniProt Q99759); assay: Selectivity interaction (ActivX KiNativ screen (kinase selectivity in THP-1 cell lysates)) EUB0000639a MAP3K3; type: subcellular; settings: lysate, at 5 µM
T1 sequence (whole entry): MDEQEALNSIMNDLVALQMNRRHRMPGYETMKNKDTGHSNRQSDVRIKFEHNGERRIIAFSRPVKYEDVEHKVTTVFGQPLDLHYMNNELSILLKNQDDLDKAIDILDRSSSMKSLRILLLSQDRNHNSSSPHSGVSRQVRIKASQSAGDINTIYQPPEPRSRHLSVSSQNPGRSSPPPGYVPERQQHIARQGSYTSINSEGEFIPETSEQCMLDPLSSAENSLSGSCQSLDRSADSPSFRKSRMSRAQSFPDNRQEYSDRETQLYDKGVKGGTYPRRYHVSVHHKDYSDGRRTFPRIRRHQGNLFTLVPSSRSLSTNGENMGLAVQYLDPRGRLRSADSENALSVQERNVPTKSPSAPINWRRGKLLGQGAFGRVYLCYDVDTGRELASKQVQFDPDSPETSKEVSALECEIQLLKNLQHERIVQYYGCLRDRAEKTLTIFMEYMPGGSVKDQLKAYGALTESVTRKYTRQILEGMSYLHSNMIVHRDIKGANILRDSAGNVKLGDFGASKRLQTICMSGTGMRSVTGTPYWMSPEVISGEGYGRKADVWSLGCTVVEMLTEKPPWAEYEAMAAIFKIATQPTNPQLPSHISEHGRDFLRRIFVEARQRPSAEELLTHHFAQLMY

[5] = biological target: Activin receptor type-1-like (Homo sapiens) (UniProt P37023); assay: Selectivity interaction (KinomeScan (DiscoverX)) EUB0000607a ACVRL1; settings: at 10 µM
[6] = biological target: T2, G protein-coupled receptor kinase 3 (Homo sapiens) (UniProt P35626); assay: Selectivity interaction (SelectScreen profiling (Invitrogen)) EUB0000607a ADRBK2; settings: at 2 µM
T2 sequence (whole entry): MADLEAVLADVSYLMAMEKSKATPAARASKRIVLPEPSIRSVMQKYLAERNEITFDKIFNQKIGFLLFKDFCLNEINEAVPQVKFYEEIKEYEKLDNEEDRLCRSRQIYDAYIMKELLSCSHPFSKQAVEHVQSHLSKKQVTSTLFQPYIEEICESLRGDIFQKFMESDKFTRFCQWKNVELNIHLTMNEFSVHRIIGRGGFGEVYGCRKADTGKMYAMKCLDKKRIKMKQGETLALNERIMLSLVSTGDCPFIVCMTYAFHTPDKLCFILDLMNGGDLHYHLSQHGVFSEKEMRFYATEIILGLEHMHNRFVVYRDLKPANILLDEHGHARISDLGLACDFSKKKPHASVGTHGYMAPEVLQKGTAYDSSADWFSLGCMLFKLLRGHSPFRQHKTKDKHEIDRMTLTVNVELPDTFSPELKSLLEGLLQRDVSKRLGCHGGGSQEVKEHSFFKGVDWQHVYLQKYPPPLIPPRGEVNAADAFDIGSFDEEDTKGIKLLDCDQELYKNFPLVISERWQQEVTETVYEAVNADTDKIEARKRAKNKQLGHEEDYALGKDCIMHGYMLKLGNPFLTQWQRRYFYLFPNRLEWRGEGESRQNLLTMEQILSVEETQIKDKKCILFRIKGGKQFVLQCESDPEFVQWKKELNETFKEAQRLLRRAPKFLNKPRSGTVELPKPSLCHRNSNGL

[7] = biological target: Platelet-derived growth factor receptor beta (Homo sapiens, UniProt P09619); assay: Selectivity interaction (Kinase panel (Carna Biosciences)) EUB0001542aTs PDGFRB; settings: at 1 µM
[8] = Selectivity interaction (Eurofins CEREP Diversity Profile (receptors and ion channels)) EUB0000279b NPY; settings: at 10 µM
[9] = biological target: T3, Ephrin type-B receptor 6 (Homo sapiens) (UniProt O15197); assay: Selectivity interaction (KinomeScan (DiscoverX)) EUB0001619a EPHB6; settings: at 1 µM
T3 sequence (whole entry): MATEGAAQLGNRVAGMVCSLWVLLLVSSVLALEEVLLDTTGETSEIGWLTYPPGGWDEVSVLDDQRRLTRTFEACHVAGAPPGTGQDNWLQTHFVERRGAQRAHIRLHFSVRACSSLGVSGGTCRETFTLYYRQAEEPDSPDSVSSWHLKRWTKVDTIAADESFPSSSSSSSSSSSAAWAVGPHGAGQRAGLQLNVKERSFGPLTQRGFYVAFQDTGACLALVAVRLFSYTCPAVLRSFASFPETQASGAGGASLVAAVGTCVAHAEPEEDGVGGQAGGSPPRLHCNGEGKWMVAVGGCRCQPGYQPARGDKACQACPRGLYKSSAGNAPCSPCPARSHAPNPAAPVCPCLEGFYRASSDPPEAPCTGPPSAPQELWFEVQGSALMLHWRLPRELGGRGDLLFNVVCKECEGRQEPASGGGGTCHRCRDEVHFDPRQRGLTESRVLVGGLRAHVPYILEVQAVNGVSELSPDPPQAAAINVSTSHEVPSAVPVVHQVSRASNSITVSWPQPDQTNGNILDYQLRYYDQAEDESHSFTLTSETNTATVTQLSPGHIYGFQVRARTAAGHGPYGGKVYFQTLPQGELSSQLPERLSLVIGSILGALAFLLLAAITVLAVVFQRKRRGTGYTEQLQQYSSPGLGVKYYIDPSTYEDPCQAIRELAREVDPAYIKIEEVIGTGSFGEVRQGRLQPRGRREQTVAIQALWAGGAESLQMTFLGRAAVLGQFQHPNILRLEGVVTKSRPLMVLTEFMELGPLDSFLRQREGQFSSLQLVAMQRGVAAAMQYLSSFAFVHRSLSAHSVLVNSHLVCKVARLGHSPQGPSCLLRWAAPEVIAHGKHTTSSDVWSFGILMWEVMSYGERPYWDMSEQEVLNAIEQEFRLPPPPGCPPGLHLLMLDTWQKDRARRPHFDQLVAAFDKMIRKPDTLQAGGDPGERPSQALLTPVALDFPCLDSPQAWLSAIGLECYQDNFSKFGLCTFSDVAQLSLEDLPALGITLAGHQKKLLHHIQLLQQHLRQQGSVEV

Chain of Platelet-derived growth factor receptor beta (P09619 whole entry): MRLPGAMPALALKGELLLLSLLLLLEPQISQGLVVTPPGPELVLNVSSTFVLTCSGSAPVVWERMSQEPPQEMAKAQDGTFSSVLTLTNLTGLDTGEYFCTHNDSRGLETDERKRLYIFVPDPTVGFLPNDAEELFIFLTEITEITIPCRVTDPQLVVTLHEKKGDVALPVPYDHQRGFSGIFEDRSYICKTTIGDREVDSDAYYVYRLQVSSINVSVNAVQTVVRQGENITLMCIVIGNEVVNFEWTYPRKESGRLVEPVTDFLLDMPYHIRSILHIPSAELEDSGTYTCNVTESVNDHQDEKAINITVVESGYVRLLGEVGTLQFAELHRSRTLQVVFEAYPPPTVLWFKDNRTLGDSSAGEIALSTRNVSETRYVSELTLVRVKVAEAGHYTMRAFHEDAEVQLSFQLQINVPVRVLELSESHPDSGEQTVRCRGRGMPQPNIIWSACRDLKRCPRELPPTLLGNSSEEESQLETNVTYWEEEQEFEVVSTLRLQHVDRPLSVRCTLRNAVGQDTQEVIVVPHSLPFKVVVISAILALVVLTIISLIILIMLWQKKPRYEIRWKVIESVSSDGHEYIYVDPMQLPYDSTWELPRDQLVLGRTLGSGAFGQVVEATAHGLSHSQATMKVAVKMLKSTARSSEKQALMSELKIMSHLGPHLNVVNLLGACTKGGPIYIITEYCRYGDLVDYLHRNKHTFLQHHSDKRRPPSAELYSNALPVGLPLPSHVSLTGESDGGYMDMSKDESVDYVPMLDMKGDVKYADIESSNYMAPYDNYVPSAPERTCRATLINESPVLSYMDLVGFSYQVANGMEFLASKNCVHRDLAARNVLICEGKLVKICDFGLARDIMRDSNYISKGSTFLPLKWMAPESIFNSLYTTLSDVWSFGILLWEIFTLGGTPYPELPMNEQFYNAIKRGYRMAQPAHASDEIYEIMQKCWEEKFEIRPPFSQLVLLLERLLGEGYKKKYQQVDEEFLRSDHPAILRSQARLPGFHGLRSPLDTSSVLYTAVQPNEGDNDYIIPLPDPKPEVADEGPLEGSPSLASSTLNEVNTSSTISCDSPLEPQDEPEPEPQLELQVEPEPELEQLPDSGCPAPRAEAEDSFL
Chain of Activin receptor type-1-like (Homo sapiens) (P37023 whole entry): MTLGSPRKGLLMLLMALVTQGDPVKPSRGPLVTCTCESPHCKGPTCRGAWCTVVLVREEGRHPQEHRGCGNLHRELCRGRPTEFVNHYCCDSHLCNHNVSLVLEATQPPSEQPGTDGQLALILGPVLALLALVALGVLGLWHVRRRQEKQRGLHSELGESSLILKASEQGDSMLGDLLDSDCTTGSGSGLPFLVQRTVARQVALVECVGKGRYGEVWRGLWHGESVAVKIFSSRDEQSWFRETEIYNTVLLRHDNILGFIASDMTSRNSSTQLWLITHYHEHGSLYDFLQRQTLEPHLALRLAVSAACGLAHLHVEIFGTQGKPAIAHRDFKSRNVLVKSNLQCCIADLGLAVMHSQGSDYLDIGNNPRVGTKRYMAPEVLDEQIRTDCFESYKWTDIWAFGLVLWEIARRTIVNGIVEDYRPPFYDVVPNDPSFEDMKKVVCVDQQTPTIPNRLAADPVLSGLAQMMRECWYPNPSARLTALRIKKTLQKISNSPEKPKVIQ
Chain of Adenosine receptor A1 (P30542 whole entry, the tested form may be a part): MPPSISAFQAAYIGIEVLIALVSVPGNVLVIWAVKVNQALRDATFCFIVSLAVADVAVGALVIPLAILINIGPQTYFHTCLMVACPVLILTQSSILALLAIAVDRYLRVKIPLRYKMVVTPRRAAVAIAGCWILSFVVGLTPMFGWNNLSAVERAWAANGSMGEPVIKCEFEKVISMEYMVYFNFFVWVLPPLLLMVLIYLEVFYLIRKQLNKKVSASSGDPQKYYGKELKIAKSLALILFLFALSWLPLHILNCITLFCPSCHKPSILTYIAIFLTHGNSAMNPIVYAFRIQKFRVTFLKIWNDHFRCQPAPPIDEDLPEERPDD
Chain of Nav1.5 (SCN5A) (Q14524 whole entry): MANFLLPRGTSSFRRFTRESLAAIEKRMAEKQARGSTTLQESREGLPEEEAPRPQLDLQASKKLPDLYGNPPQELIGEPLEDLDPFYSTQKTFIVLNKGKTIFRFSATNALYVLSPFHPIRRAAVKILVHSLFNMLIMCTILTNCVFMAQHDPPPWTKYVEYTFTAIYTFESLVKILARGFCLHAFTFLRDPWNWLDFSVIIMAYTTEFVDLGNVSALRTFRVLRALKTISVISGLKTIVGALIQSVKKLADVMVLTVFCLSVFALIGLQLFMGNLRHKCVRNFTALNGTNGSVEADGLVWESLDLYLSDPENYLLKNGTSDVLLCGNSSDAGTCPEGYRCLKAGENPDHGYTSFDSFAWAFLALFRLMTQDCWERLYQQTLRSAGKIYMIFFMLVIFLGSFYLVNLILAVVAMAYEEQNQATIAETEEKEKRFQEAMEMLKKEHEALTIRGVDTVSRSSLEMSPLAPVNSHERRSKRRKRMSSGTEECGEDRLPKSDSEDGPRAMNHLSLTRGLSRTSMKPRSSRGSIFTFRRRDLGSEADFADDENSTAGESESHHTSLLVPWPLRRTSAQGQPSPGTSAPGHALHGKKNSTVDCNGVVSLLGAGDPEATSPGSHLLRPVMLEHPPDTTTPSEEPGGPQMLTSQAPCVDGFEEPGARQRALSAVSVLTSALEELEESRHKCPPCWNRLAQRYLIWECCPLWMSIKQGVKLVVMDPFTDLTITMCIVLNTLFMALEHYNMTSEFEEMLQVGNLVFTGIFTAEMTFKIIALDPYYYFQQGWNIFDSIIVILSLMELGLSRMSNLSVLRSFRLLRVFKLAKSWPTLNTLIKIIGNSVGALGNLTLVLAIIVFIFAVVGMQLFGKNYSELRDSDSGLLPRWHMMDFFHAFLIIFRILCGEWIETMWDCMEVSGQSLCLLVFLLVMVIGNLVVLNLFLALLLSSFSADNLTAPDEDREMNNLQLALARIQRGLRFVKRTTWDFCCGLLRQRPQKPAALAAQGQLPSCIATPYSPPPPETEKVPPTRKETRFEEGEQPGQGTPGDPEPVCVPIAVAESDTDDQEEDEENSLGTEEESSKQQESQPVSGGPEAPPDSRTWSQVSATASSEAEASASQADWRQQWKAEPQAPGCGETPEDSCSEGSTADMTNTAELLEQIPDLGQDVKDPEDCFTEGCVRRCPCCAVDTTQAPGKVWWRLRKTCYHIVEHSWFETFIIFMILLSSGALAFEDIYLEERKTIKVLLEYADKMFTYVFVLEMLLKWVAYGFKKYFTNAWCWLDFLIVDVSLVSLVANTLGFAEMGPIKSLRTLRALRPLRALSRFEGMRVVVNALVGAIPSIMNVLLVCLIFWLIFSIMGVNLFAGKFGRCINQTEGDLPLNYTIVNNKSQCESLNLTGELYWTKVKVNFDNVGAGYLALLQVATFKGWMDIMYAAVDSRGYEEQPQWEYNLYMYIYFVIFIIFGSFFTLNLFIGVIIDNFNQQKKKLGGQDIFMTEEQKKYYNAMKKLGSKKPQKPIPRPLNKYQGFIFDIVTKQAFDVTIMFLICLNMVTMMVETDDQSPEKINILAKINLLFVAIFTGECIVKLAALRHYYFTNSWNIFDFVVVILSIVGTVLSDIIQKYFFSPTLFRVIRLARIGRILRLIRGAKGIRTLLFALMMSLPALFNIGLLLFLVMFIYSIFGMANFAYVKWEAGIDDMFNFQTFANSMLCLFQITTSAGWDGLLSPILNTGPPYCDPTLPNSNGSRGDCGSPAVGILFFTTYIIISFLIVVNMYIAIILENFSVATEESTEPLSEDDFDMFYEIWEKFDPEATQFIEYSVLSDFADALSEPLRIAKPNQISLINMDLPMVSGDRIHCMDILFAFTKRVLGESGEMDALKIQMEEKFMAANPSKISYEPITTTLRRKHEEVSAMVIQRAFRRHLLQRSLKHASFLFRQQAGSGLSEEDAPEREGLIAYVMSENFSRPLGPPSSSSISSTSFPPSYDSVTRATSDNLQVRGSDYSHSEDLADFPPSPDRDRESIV

CCn1c(-c2nc3cc(C(=O)N4CCCC(N)C4)ccc3n2C)cc2ccccc21 (centres undefined) gave an XC50 [1] of 31.6 µM.

With CCC(=O)N1CC[C@H](Nc2ncnc3c2CN(c2cnc(OC)c(C(F)(F)F)c2)CC3)C1 [LENIOLISIB] the IC50 [2] was > 30 µM.

Compound Cc1cc(CN)cc(C)c1-c1ncn(C)c1-c1cncn1C has a dTagg [3] of 0 K.

In the case of CC[C@@H]1[C@H](F)C(=O)N[C@@H]1COc1nccc2cc(C(N)=O)c(OC)cc12 [ZIMLOVISERTIB], the % of inhibition [4] is reported as -26.4%.

For CNC(=O)Nc1ccc(-c2nc(N3CC4CCC(C3)O4)c3cnn(C4CCC5(CC4)OCCO5)c3n2)cc1, the % of control [5] was 100% and the % of inhibition [6] was -3%.

With Cn1cc(Nc2nccc(N3CC4CCC(C3)N4C(=O)[C@@H]3CC3(F)F)n2)cn1 the % of inhibition [7] was 66%.

CC(=O)c1cc(-c2ccccc2OCC2CC2)c2ncccn12 gave a % of control [8] of 123%.

In the case of N#Cc1cccc(-c2c[nH]c3ncnc(N4CCOCC4)c23)c1, the % of control [9] is reported as 86%.
